One data set is described as follows: RP, Waters ACQUITY UPLC HSS T3, 100 × 2.1 mm, 50 °C; A: water + 0.1% formic acid, pH 3; B: 30% methanol + 70% acetonitrile + 0.1% formic acid, pH 3; gradient (min/%B) 0/5 1/8 2/15 3/40 4/70 4.5/100 5/100 6.4/100 6.6/5 6.8/5 7/5. The settings on record: stereoisomer not certain.
Regarding `Cn1c(=O)[nH]c(=O)c2c1[nH]c(=O)n2C` [3,7-Dimethyluric acid], the LC retention time was 1.54 min.

As for `C=CCS(=O)CC(N)C(=O)O` (centres undefined) [Alliin], the LC retention time amounted to 0.638 min.

For the compound `Cn1cnc2[nH]c(=O)[nH]c(=O)c21` [7-Methylxanthine], the LC retention time amounted to 1.25 min.

For the compound `O=C(O)CCc1ccc(O)cc1O` [3-(2,4-dihydroxyphenyl)propionic acid], the LC retention time worked out at 3.02 min.

In the case of `CC(=O)Nc1c(N)[nH]c(=O)n(C)c1=O` [AAMU], the LC retention time was determined as 0.681 min.

Turning to `O=C(O)C1CCCCN1` (single isomer, unassigned; (+)) [(+)-Pipecolinic acid], the LC retention time stood at 0.617 min.

For `O=Cc1ccccc1O` [2-Hydroxybenzaldehyde], the LC retention time turned out to be 3.72 min.

Regarding `O=C(O)CCc1cc(O)cc(O)c1` [3-(3,5-Dihydroxyphenyl)propanoic acid], the LC retention time worked out at 2.66 min.

As for `O=C(O)C1CC(O)CN1` (centres undefined) [Hydroxyproline], the LC retention time came to 0.466 min.

In the case of `OCC1OC(Oc2c[nH]c3ccccc23)C(O)C(O)C1O` (stereo not drawn) [Indoxyl beta-d-glucoside], the LC retention time came to 2.92 min.

Regarding `O=C(O)C1OC(Oc2ccc(O)cc2)C(O)C(O)C1O` (centres undefined) [Hydroquinone glucuronide], the LC retention time turned out to be 0.909 min.

As for `COc1ccc(-c2cc(=O)c3c(O)cc(OC4OC(C(=O)O)C(O)C(O)C4O)cc3o2)cc1O` (centres undefined) [Diosmetin 7-glucuronide], the LC retention time was 3.6 min.

Take `NC(=O)NCCC[C@H](N)C(=O)O` [L-Citrulline]: the LC retention time stood at 0.483 min.

For the compound `O=C(O)c1cc(=O)c2cccc(O)c2[nH]1` [Xanthurenic acid], the LC retention time is 2.57 min.

As for `CN(C)CC(=O)O` [N,N-Dimethylglycine], the LC retention time came to 0.49 min.

A short description of a further data set: RP, Waters ACQUITY UPLC BEH C18, 100 × 2.1 mm, 1.7 µm, 65 °C, 0.4 mL/min, estimated dead time 0.55 min; A: water + 0.1% formic acid, pH 3; B: 80% acetonitrile + 20% acetone + 0.1% formic acid, pH 3; gradient (min/%B) 0/0 5/100 5.5/0 6/0. Conditions: stereoisomer not certain.
Regarding `Oc1ccccc1O` [Catechol], the LC retention time was 1.75 min.

The nature of the next data set: RP, Waters ACQUITY UPLC BEH Shield RP18, 150 × 2.1 mm, 1.7 µm, 40 °C, 0.4 mL/min, estimated dead time 0.83 min; A: water + 0.1% formic acid, pH 3; B: acetonitrile + 0.1% formic acid, pH 3; gradient (min/%B) 0/0 30/50 31/100 37/100 37.1/0. Conditions: stereoisomer not certain.
For the compound `CC1=C2C(=O)C=C(COC(=O)C(=O)O)C2C2OC(=O)C(C)C2CC1` (centres undefined) [Dihydro-8-deoxylactucin-15-oxalate], the LC retention time was 14.9 min.

For `COc1cc(CCC(=O)O)ccc1O` [Dihydroferulic acid], the LC retention time was 8.81 min.

In the case of `O=c1c(O)c(-c2ccccc2)oc2cc(O)cc(O)c12` [galangin], the LC retention time is 29.4 min.

For `C=C1C(=O)OC2C3C(CO)=CC(=O)C3=C(C)CC(OC(=O)Cc3ccc(O)cc3)C12` (centres undefined) [Lactucopicrin], the LC retention time was 18.4 min.

Consider `CC1=C2C(=O)C=C(CO)C2C2OC(=O)C(C)C2CC1` (centres undefined) [Dihydro-8-deoxylactucin], for which the LC retention time was 14.5 min.

`C=C1C(=O)OC2C3C(COC(=O)C(=O)O)=CC(=O)C3=C(C)CC(O)C12` (centres undefined) [lactucin-15-oxalate]: the LC retention time was 10.4 min.

Consider `C=C1C(=O)OC2C1CCC(C)=C1C(=O)C=C(CO)C12` (centres undefined) [8-deoxylactucin], for which the LC retention time was 15.5 min.

On to `CCCOC(=O)c1cc(O)c(O)c(O)c1` [propyl gallate], for which the LC retention time was 12.8 min.

Take `CC1=C2C(=O)C=C(COC(=O)C(=O)O)C2C2OC(=O)C(C)C2C(OC(=O)Cc2ccc(O)cc2)C1` (centres undefined) [Dihydrolactucopicrin-15-oxalate]: the LC retention time is 17.3 min.

Consider `C=C1C(=O)OC2C3C(CO)=CC(=O)C3=C(C)CC(O)C12` (centres undefined) [Lactucin], for which the LC retention time was 11.2 min.

With `Oc1ccccc1O` [Catechol], the LC retention time was 4.35 min.

As for `CC1=C2C(=O)C=C(CO)C2C2OC(=O)C(C)C2C(O)C1` (centres undefined) [Dihydrolactucin], the LC retention time was 10.5 min.

As to `CC1=C2C(=O)C=C(COC(=O)C(=O)O)C2C2OC(=O)C(C)C2C(O)C1` (centres undefined) [Dihydrolactucin-15-oxalate], the LC retention time was 9.7 min.

In the case of `C=C1C(=O)OC2C3C(COC(=O)C(=O)O)=CC(=O)C3=C(C)CC(OC(=O)Cc3ccc(O)cc3)C12` (centres undefined) [lactucopicrin-15-oxalate], the LC retention time was 17.2 min.

A short description of another data set: RP, Agilent ZORBAX RRHD Eclipse Plus C18, 50 × 2.1 mm, 1.8 µm, 30 °C, 0.4 mL/min, estimated dead time 0.28 min; A: water + 0.1% formic acid, pH 3; B: acetonitrile + 0.1% formic acid, pH 3; gradient (min/%B) 0/1 5/10 8/25 9.1/99 10/99 12/1. The settings on record: stereoisomer not certain.
As to `COc1cc(CCC(=O)O)ccc1O` [Dihydroferulic acid], the LC retention time was 7.16 min.

As to `Oc1ccccc1O` [Catechol], the LC retention time was 3.15 min.

The nature of a further data set: RP, Agilent ZORBAX RRHD Eclipse Plus C18, 50 × 2.1 mm, 1.8 µm, 30 °C, 0.4 mL/min, estimated dead time 0.28 min; A: water + 0.1% formic acid, pH 3; B: acetonitrile + 0.1% formic acid, pH 3; gradient (min/%B) 0/1 5/10 8/25 9.1/99 10/99 12/99. Conditions: stereoisomer not certain.
For the compound `COc1cc(CCC(=O)O)ccc1O` [Dihydroferulic acid], the LC retention time was 4.07 min.

`Oc1ccccc1O` [Catechol]: the LC retention time was 3.97 min.

The record behind these values is the RepoRT retention time repository (doi:10.1016/j.foodchem.2021.129757).
